Values quoted from earlier work, collected in patent publication US20170020833A1, “METHOD FOR TREATING AND/OR PREVENTING ACNE SCARS WITH A FIXED COMBINATION OF ADAPALENE OR ITS SALTS AND BENZOYL PEROXIDE” (GALDERMA RESEARCH & DEVELOPMENT, priority 2014, published 2017).

System: procollagen, MMP-1, 3 and MMP-9 in photodamage skin
Conditions: oral or topical; leading to MMP-1, 3 and MMP-9 decrease in relation to treatment duration

CC1=C(/C=C/C(C)=C/C=C/C(C)=C\C(=O)O)C(C)(C)CCC1 [isotretinoin]
Effect on UV-induced loss of procollagen: protects against UV-induced loss of procollagen
